{"source": "paper PMC6255700", "about": "“A novel glycosyltransferase catalyses the transfer of glucose to glucosylated anthocyanins in purple sweet potato” (Journal of Experimental Botany, 2018)", "key": {"[1]": {"biological_target": "T1, Ib3GGT (IbA3G2GluT) (Ipomoea batatas, UniProt A1YM58)", "T1 construct": "gene GT", "T1 sequence (A1YM58 entry or part of it)": "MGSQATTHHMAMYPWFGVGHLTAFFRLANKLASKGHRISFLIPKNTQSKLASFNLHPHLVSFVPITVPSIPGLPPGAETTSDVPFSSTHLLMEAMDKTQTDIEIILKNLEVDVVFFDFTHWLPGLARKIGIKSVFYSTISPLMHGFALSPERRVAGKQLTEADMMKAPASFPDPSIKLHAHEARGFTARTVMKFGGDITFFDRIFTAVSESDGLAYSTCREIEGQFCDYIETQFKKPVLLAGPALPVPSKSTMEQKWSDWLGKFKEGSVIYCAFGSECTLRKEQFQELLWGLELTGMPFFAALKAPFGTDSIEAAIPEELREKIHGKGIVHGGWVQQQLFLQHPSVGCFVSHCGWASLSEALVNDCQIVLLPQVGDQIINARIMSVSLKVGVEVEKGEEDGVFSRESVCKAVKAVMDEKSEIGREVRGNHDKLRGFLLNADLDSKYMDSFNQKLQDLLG", "assay": "HPLC / LC-MS glycosyltransferase assay with crude recombinant yeast extract", "format": "cell-based", "details": "acceptor; donor 1 mM UDP-glucose; 100 mM phosphate pH 7.0, 37 °C, 2 h"}, "[2]": {"biological_target": "T2, At3GGT (UGT79B1, AtA3G2XylT) (Arabidopsis thaliana, UniProt Q9LVW3)", "T2 construct": "gene A3G2XYLT; full length, C-terminal His6, pYES2 in Saccharomyces cerevisiae BY4742, crude yeast extract", "T2 sequence (Q9LVW3 1-468)": "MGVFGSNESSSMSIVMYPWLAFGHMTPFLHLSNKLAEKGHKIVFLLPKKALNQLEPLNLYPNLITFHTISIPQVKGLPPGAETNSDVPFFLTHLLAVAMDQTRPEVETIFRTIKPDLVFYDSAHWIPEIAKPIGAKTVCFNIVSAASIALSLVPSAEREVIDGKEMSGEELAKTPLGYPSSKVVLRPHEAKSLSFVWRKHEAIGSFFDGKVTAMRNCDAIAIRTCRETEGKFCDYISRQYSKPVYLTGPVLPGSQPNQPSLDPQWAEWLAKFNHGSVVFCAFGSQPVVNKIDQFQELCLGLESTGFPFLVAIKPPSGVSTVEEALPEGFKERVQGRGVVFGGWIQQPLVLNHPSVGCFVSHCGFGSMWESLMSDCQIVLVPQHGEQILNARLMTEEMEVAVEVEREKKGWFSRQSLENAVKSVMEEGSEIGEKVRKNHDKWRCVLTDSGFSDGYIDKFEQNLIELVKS", "assay": "HPLC / LC-MS glycosyltransferase assay with crude recombinant yeast extract", "format": "cell-based", "details": "acceptor; donor UDP-xylose; 100 mM phosphate pH 7.0, 37 °C, 2 h"}}, "data": [{"smiles": "OC[C@H]1O[C@@H](Oc2cc3c(O)cc(O)cc3[o+]c2-c2ccc(O)c(O)c2)[C@H](O)[C@@H](O)[C@@H]1O", "note": "[cyanidin 3-O-glucoside]", "values": [{"measurement": "HPLC / LC-MS glycosyltransferase assay with crude recombinant yeast extract", "setting": "[1]", "result": "The recombinant Ib3GGT protein only catalysed the conversion of cyanidin 3-O-glucoside into cyanidin 3-O-sophoroside"}, {"measurement": "HPLC / LC-MS glycosyltransferase assay with crude recombinant yeast extract", "setting": "[2]", "result": "using only UDP-xylose as the sugar donor to catalyse cyanidin 3-O-glucoside into cyanidin 3-O-glucoside-2″-O-xyloside"}]}]}
